Source: US20260022096A1, “NOVEL SULFONAMIDES AND THEIR USE AS NEUROPROTECTIVE AND/OR NEURORESTORATIVE AGENTS” (GENECODE, priority 2022, published 2026)

Target: T1, GFRα1-RET (Homo sapiens, UniProt P56159)
T1 construct: expressed in transfected cells; host or cells: MG87 murine fibroblasts, stably transfected
T1 sequence (P56159 25-429 limits assumed): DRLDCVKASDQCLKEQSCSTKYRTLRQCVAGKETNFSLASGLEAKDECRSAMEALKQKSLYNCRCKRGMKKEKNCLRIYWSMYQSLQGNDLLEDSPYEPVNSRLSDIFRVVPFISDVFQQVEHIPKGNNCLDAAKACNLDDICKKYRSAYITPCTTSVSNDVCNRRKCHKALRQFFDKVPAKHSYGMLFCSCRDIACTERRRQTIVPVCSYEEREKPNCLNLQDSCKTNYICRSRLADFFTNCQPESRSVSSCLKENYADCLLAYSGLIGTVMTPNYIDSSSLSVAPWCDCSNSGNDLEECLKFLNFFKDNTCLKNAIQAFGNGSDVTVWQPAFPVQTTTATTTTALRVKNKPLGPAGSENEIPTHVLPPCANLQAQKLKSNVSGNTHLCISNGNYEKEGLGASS
Experiment: Elk1 reporter-gene (luciferase) assay in cells expressing GFRα1-RET
Assay type: cell-based
Details: MG87 murine fibroblasts stably transfected with PathDetect Elk-1, GFRα1 and RET, 6 concentrations, agonist/activator activity
Protocol: For ECso determination, a dose-response test was performed using 6 concentrations of each tested compound. Dose-response curves were fitted using the sigmoidal dose-response (variable slope) analysis in GraphPad Prism program (Graph Pad Inc) and ECso of agonist/activator activity was calculated. Dose-response experiments were all performed in duplicate, two times independently.

COc1ccc(S(=O)(=O)N2CCC(c3ccccc3)CC2)cc1N1[C@@H]2CC[C@H]1CN(C(=O)c1ccc(F)cc1Cl)C2 [compound 009, (2-chloro-4-fluoro-phenyl)-[(1S,5R)-8-[2-methoxy-5-[(4-phenyl-1-piperidyl)sulfonyl]phenyl]-3,8-diazabicyclo[3.2.1]octan-3-yl]methanone]
EC50: 1000 to 10000 nM

COc1ccc(S(=O)(=O)N2CCC(CCc3ccccc3)CC2)cc1N1[C@@H]2CC[C@H]1CN(C(=O)c1ccc(F)cc1Cl)C2 [compound 010, (2-chloro-4-fluoro-phenyl)-[(1S,5R)-8-[2-methoxy-5-[[4-(2-phenylethyl)-1-piperidyl]sulfonyl]phenyl]-3,8-diazabicyclo[3.2.1]octan-3-yl]methanone]
EC50: < 1000 nM

COc1ccc(S(=O)(=O)N2CCN(c3ccccc3)CC2)cc1N1[C@@H]2CC[C@H]1CN(C(=O)c1ccc(F)cc1Cl)C2 [compound 012, (2-chloro-4-fluoro-phenyl)-[(1S,5R)-8-[2-methoxy-5-(4-phenylpiperazin-1-yl)sulfonyl-phenyl]-3,8-diazabicyclo[3.2.1]octan-3-yl]methanone]
EC50: < 1000 nM

COc1ccc(S(=O)(=O)N2CCN(c3ncccn3)CC2)cc1N1[C@@H]2CC[C@H]1CN(C(=O)c1ccc(F)cc1Cl)C2 [compound 013]
EC50: 1000 to 10000 nM

COc1ccc(S(=O)(=O)N2CCN(Cc3ccccc3)CC2)cc1N1[C@@H]2CC[C@H]1CN(C(=O)c1ccc(F)cc1Cl)C2 [compound 014]
EC50: 1000 to 10000 nM

COc1ccc(S(=O)(=O)N2C[C@H]3CCCC[C@H]3C2)cc1N1[C@@H]2CC[C@H]1CN(C(=O)c1ccc(F)cc1Cl)C2 [compound 015, [(1S,5R)-8-[5-[[(3aS,7aR)-1,3,3a,4,5,6,7,7a-octahydroisoindol-2-yl]sulfonyl]-2-methoxy-phenyl]-3,8-diazabicyclo[3.2.1]octan-3-yl]-(2-chloro-4-fluoro-phenyl)methanone]
EC50: < 1000 nM

CCCN(C)S(=O)(=O)c1ccc(OC)c(N2[C@@H]3COC[C@H]2CN(C(=O)c2ccc(F)cc2C(F)(F)F)C3)c1 [compound 023, 3-[(1S,5R)-7-[4-fluoro-2-(trifluoromethyl)benzoyl]-3-oxa-7,9-diazabicyclo[3.3.1]nonan-9-yl]-4-methoxy-N-methyl-N-propyl-benzenesulfonamide]
EC50: 10000 to 50000 nM

CCCN(C)S(=O)(=O)c1ccc(OC)c(N2C3CCC2CN(C(=O)c2ccc(F)cc2C(F)(F)F)C3)c1 [compound 024, 3-[3-[4-fluoro-2-(trifluoromethyl)benzoyl]-3,8-diazabicyclo[3.2.1]octan-8-yl]-4-methoxy-N-methyl-N-propyl-benzenesulfonamide]
EC50: 1000 to 10000 nM

CCCN(C)S(=O)(=O)c1ccc(F)c(N2[C@@H]3CC[C@H]2CN(C(=O)c2ccc(F)cc2Cl)C3)c1 [compound 026]
EC50: 1000 to 10000 nM

CCCN(C)S(=O)(=O)c1ccc(OC(F)(F)F)c(N2[C@@H]3CC[C@H]2CN(C(=O)c2ccc(F)cc2Cl)C3)c1 [compound 027, 3-[(1S,5R)-3-(2-chloro-4-fluoro-benzoyl)-3,8-diazabicyclo[3.2.1]octan-8-yl]-N-methyl-N-propyl-4-(trifluoromethoxy)benzene sulfonamide]
EC50: 1000 to 10000 nM

CCCN(C)S(=O)(=O)c1cccc(N2[C@@H]3CC[C@H]2CN(C(=O)c2ccc(F)cc2Cl)C3)c1 [compound 028, 3-[(1S,5R)-3-(2-chloro-4-fluoro-benzoyl)-3,8-diazabicyclo[3.2.1]octan-8-yl]-N-methyl-N-propyl-benzenesulfonamide]
EC50: 1000 to 10000 nM

CCCN(C)S(=O)(=O)c1ccc(OCC)c(N2[C@@H]3CC[C@H]2CN(C(=O)c2ccc(F)cc2Cl)C3)c1 [compound 029]
EC50: 1000 to 10000 nM

CCCN(C)S(=O)(=O)c1ccc(OC2CCC2)c(N2[C@@H]3CC[C@H]2CN(C(=O)c2ccc(F)cc2Cl)C3)c1 [compound 030, 3-[(1S,5R)-3-(2-chloro-4-fluoro-benzoyl)-3,8-diazabicyclo[3.2.1]octan-8-yl]-4-(cyclobutoxy)-N-methyl-N-propyl-benzenesulfonamide]
EC50: 1000 to 10000 nM

CCCN(C)S(=O)(=O)c1ccc(OCOC)c(N2[C@@H]3CC[C@H]2CN(C(=O)c2ccc(F)cc2Cl)C3)c1 [compound 031, 3-[(1S,5R)-3-(2-chloro-4-fluoro-benzoyl)-3,8-diazabicyclo[3.2.1]octan-8-yl]-4-(methoxymethoxy)-N-methyl-N-propyl-benzenesulfonamide]
EC50: 1000 to 10000 nM

CCN(CC)S(=O)(=O)c1cnc(Cl)c(N2[C@@H]3CC[C@H]2CN(C(=O)c2ccc(F)cc2Cl)C3)c1 [compound 032, 6-chloro-5-[(1S,5R)-3-(2-chloro-4-fluoro-benzoyl)-3,8-diazabicyclo[3.2.1]octan-8-yl]-N,N-diethyl-pyridine-3-sulfonamide]
EC50: 1000 to 10000 nM

CCN(CC)S(=O)(=O)c1cnc(OC)c(N2[C@@H]3CC[C@H]2CN(C(=O)c2ccc(F)cc2Cl)C3)c1 [compound 033, 5-[(1S,5R)-3-(2-chloro-4-fluoro-benzoyl)-3,8-diazabicyclo[3.2.1]octan-8-yl]-N,N-diethyl-6-methoxy-pyridine-3-sulfonamide]
EC50: 1000 to 10000 nM

CCN(CC)S(=O)(=O)c1cnc(OCc2ccccc2)c(N2[C@@H]3CC[C@H]2CN(C(=O)c2ccc(F)cc2Cl)C3)c1 [compound 034, 6-benzyloxy-5-[(1S,5R)-3-(2-chloro-4-fluoro-benzoyl)-3,8-diazabicyclo[3.2.1]octan-8-yl]-N,N-diethyl-pyridine-3-sulfonamide]
EC50: < 1000 nM

CCN(CC)S(=O)(=O)c1cnc(O)c(N2[C@@H]3CC[C@H]2CN(C(=O)c2ccc(F)cc2Cl)C3)c1 [compound 035]
EC50: 10000 to 50000 nM

CCCN(C)S(=O)(=O)c1ccc(O)c(N2[C@@H]3CC[C@H]2CN(C(=O)c2ccc(F)cc2Cl)C3)c1 [compound 036, 3-[(1S,5R)-3-(2-chloro-4-fluoro-benzoyl)-3,8-diazabicyclo[3.2.1]octan-8-yl]-4-hydroxy-N-methyl-N-propyl-benzenesulfonamide]
EC50: 1000 to 10000 nM

COc1ccc(S(=O)(=O)N2CCC(c3ccc(F)cc3)CC2)cc1N1[C@@H]2CC[C@H]1CN(C(=O)c1ccc(F)cc1Cl)C2 [compound 039, (2-chloro-4-fluoro-phenyl)-[(1S,5R)-8-[5-[[4-(4-fluorophenyl)-1-piperidyl]sulfonyl]-2-methoxy-phenyl]-3,8-diazabicyclo[3.2.1]octan-3-yl]methanone]
EC50: < 1000 nM

COc1ccc(S(=O)(=O)N2CCC(c3cccc(C#N)c3)CC2)cc1N1[C@@H]2CC[C@H]1CN(C(=O)c1ccc(F)cc1Cl)C2 [compound 040, 3-[1-[3-[(1S,5R)-3-(2-chloro-4-fluoro-benzoyl)-3,8-diazabicyclo[3.2.1]octan-8-yl]-4-methoxy-phenyl]sulfonyl-4-piperidyl]benzonitrile]
EC50: < 1000 nM

COC(=O)c1cccc(C2CCN(S(=O)(=O)c3ccc(OC)c(N4[C@@H]5CC[C@H]4CN(C(=O)c4ccc(F)cc4Cl)C5)c3)CC2)c1 [compound 041, methyl 3-[1-[3-[(1S,5R)-3-(2-chloro-4-fluoro-benzoyl)-3,8-diazabicyclo[3.2.1]octan-8-yl]-4-methoxy-phenyl]sulfonyl-4-piperidyl]benzoate]
EC50: < 1000 nM

COC(=O)c1ccc(C2CCN(S(=O)(=O)c3ccc(OC)c(N4[C@@H]5CC[C@H]4CN(C(=O)c4ccc(F)cc4Cl)C5)c3)CC2)cc1 [compound 042, methyl 4-[1-[3-[(1S,5R)-3-(2-chloro-4-fluoro-benzoyl)-3,8-diazabicyclo[3.2.1]octan-8-yl]-4-methoxy-phenyl]sulfonyl-4-piperidyl]benzoate]
EC50: < 1000 nM

COc1ccc(S(=O)(=O)N2CCC(c3cccc(-n4cccn4)c3)CC2)cc1N1[C@@H]2CC[C@H]1CN(C(=O)c1ccc(F)cc1Cl)C2 [compound 043, (2-chloro-4-fluoro-phenyl)-[(1S,5R)-8-[2-methoxy-5-[[4-(3-pyrazol-1-ylphenyl)-1-piperidyl]sulfonyl]phenyl]-3,8-diazabicyclo[3.2.1]octan-3-yl]methanone]
EC50: < 1000 nM

COc1ccc(S(=O)(=O)N2CCN(CCc3ccc(F)cc3)CC2)cc1N1[C@@H]2CC[C@H]1CN(C(=O)c1ccc(F)cc1Cl)C2 [compound 046, (2-chloro-4-fluoro-phenyl)-[(1S,5R)-8-[5-[4-[2-(4-fluorophenyl)ethyl]piperazin-1-yl]sulfonyl-2-methoxy-phenyl]-3,8-diazabicyclo[3.2.1]octan-3-yl]methanone]
EC50: < 1000 nM

COc1ccc(S(=O)(=O)N2CCN(CCc3ccc(Cl)cc3)CC2)cc1N1[C@@H]2CC[C@H]1CN(C(=O)c1ccc(F)cc1Cl)C2 [compound 048, (2-chloro-4-fluoro-phenyl)-[(1S,5R)-8-[5-[4-[2-(4-chlorophenyl)ethyl]piperazin-1-yl]sulfonyl-2-methoxy-phenyl]-3,8-diazabicyclo[3.2.1]octan-3-yl]methanone]
EC50: < 1000 nM

COc1ccc(S(=O)(=O)N2CCC(c3ccccc3)CC2)cc1N1[C@@H]2CC[C@H]1CN(C(=O)c1cc(F)c(F)cc1Cl)C2 [compound 049, (2-chloro-4,5-difluoro-phenyl)-[(1S,5R)-8-[2-methoxy-5-[(4-phenyl-1-piperidyl)sulfonyl]phenyl]-3,8-diazabicyclo[3.2.1]octan-3-yl]methanone]
EC50: < 1000 nM
